From patent publication US12630521B2, “Arylamides and methods of use thereof” (Genzyme Corporation, priority 2019, dated 2026) come the findings set out here.

pEC50: −log10 of the molar value.

In assay [1] the target is T1, CFTR (ΔF508 homozygous CF-HBE cells) (Homo sapiens, UniProt P13569, DEL508-508).
T1 construct: Primary human bronchial epithelial cells from a ΔF508 homozygous CF donor; host or cells: primary CF-HBE cells (ΔF508/ΔF508 donor)
The assay is described as follows: TECC24 AUC fold over DMSO @10 uM: CFTR-mediated transepithelial chloride transport in primary CF-HBE cells. Format: cell-based. As to conditions: 10 μM test agent, 48 hours, forskolin-stimulated IEQ AUC divided by vehicle AUC. The method, then:
Example 37: TECC24 AUC Fold Over DMSO @10 uM
The effects of a test agent on CFTR-mediated transepithelial chloride transport was measured using TECC24 recording analysis. Test agents were solubilized in DMSO. Solubilized test agents were mixed with incubation medium containing DMEM/F12, Ultroser G (2%; Crescent Chemical, catalog #67042), Hyclone Fetal Clone 11(2%; GE Healthcare, catalog #SH30066.02), bovine brain extract (0.25%; Lonza, catalog #CC-4098), insulin (2.5 μg/mL), IL-13 (10 ng/mL), hydrocortisone (20 nM), transferrin (2.5 μg/mL), triiodothyronine (500 nM), ethanolamine (250 nM), epinephrine (1.5 μM), phosphoethanolamine (250 nM), and retinoic acid (10 nM). Primary human bronchial epithelial cells from a ΔF508 homozygous CF donor (CF-HBE cells; from University of North Carolina Cystic Fibrosis Tissue Procurement Center), grown on Transwell HTS 24-well cell culture inserts (Costar, catalog #3378), were exposed to test agents or controls dissolved in incubation medium. The CF-HBE cells were cultured at 36.5° C. for 48 hours before TECC24 recordings were performed in the presence or absence of test agent, a positive control or vehicle (DMSO).
Following incubation, the transwell cell culture inserts containing the test agent or control-treated CF-HBE cells were loaded onto a TECC24 apparatus (TECC v7 or MTECC v2; EP Design) to record the transepithelial voltage (VT) and resistance (TEER) using 4 AgCl electrodes per well configured in current-clamp mode. The apical and basolateral bath solutions both contained (in mM) 140 NaCl, 5 KCl, 2 CaCl2, 1 MgCl2, 10 Hepes, and 10 glucose (adjusted to pH 7.4 with NaOH). To inhibit basal Na+ absorption, the ENaC inhibitor benzamil (10 μM) was added to the bath. Then, the adenylate cyclase activator, forskolin (10 μM), was added to the bath to activate CFTR. The forskolin-stimulated Cl— transport was halted by addition of CFTR inhibitor-172 (20 μM) to the bath at the end of the experiment to confirm specificity. VT and TEER recordings were digitally acquired at routine intervals using TECC or MTECC software (EP Design). VT and TEER were transformed into equivalent transepithelial Cl-current (IEQ), and the Area Under the Curve (AUC) of the IEQ time course between forskolin and CFTR inhibitor-172 addition is generated using Excel (Microsoft). Efficacy is expressed as the ratio of the test agent AUC divided by vehicle AUC. EC50s based on AUC are generated using the non-linear regression log(agonist) vs. response function in Prism software (GraphPad) with Hill Slope fixed=1.
If a test agent increased the AUC of the forskolin-stimulated IEQ relative to vehicle in CF-HBE cells, and this increase was inhibited by CFTR inhibitor-172, then the test agent was considered a CFTR corrector.

In assay [2] the target is T2, human Cystic Fibrosis Transmembrane Conductance Regulator (CFTR) harboring the ΔF508 mutation (Homo sapiens, UniProt P13569, DEL508-508).
T2 construct: expressed in transfected cells; host or cells: H441 carcinoma cell line (G418 selection)
T2 sequence (P13569 with tags, fused parts or gaps DEL508-508): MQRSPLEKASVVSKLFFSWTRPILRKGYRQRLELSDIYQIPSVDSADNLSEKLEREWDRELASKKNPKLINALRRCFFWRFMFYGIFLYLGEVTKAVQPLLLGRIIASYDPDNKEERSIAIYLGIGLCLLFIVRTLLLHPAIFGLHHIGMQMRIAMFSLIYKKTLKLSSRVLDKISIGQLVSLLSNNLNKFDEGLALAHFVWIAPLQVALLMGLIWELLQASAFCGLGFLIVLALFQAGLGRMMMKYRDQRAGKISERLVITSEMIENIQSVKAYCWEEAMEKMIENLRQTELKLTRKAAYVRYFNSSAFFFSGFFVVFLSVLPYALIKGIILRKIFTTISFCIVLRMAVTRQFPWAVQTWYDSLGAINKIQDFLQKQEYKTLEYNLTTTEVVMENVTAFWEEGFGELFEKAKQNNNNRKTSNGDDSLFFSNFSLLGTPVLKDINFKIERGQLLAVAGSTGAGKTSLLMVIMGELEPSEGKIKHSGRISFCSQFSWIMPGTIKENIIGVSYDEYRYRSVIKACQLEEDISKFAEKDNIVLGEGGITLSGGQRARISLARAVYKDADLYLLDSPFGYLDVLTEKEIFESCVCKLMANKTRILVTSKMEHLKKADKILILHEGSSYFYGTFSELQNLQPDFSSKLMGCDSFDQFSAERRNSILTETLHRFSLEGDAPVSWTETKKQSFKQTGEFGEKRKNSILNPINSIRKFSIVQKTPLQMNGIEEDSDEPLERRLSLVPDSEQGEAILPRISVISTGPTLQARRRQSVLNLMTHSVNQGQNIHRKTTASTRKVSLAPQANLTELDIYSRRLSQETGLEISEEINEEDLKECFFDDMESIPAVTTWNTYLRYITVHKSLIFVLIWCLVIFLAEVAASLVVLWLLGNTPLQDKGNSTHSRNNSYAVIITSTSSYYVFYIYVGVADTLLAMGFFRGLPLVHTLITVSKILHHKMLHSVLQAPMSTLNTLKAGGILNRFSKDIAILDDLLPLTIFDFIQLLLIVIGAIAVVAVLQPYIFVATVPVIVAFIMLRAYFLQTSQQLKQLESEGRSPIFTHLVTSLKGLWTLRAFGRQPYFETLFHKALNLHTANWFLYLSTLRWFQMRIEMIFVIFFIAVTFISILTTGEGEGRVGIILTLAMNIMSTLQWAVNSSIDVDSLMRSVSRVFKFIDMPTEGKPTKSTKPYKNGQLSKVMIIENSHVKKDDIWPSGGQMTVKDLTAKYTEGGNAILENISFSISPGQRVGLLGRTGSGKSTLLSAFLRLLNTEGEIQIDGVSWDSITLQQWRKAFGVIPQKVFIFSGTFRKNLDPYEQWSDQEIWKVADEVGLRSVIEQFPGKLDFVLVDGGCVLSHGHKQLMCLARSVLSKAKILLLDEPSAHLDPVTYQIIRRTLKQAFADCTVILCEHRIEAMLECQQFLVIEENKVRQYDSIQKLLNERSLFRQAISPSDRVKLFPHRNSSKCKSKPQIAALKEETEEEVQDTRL
The assay is described as follows: H441 cell Emax and EC50: HRP-tagged ΔF508-CFTR cell-surface luminescence assay. The class given is cell-based. The conditions noted are these: H441 cells expressing HRP-tagged ΔF508-CFTR, 27° C. for two nights; for pEC50: 15-point dose-response; for Emax: NCI-H441, % of maximum VX809 signal. From the text: Example 36: H441 Cell Emax and EC50
Two cell lines were used, the H441 carcinoma line and the CFHBE41o− (41o−) human bronchial epithelial line. Both cell lines expressed human Cystic Fibrosis Transmembrane Conductance Regulator (CFTR) harboring the ΔF508 mutation and with an in-frame fusion in CFTR extracellular loop 4 of Horse Radish Peroxidase (HRP) under control of the CMV promoter. In the presence of the HRP tag, ΔF508-CFTR transported to the cell surface was detectable upon addition of an HRP substrate (Luminata Forte). Both cell types were cultivated at 37° C. with CO2.
For both cell types, the medium was changed every other day unless the culture was at low % confluence. Cells were used for the assays at ˜75% confluence.
DMSO/Compound Dilutions Plate for 15-Point Dose-Response Testing
To a polypropylene (PP) 384-well plate, 15 μls DMSO was added to all wells in columns 1-22 and 24 (low Control). 15 μls of 260 μM VX809 (Lumacaftor), Selleckchem S1565, was added to column 23 wells (high Control). 15 μls of 10 mM test compound or VX809 (control) were added to wells of row A. Serial dilutions of Row A compound were performed 2×15 μls in rows A through 0 (15-point).
A PP, 384-well plate containing the appropriate cell culture medium was prepared for each assay plate with 100 μls per well. For the doxycycline-induced 41o− cells, doxycycline for both the assay plate and the medium dilution plate was added at 0.0005 mg/ml to the medium.
Both cell lines were plated for the assay at 30 μls per 384-well at 3.4×10^e5 cells per ml (˜10K cells/well). H441 cells were plated on opaque, white, Corning plate 3704. 41o− cells were plated on collagen-coated opaque, white, Corning plate 356665. For 41o− cells, doxycycline was added to the medium.
Compound Addition/Assay Incubation
Using FX (Beckman) protocol, 10 μls diluted compound or medium was added per well to the Assay Plate as: 2 μls DMSO Dilution plate well is diluted in 100 μls of the Medium Dilution Plate well, mixed, and 10 μls is transferred to the Assay Plate.
The final assay dilution series is 24.5, 12.3, 6.1, 3.1, 1.5, 0.8, 0.4, 0.2, 0.1, 0.05, 0.02, 0.01, 0.006, 0.003, 0.001 and 0 μM. The 41o− assay plates were incubated at 37° C. w/CO2, the H441 assay plates were incubated at 27° C. w/CO2, each overnight for two nights.
Assay Result Determination
After being brought to room temperature, the assay plate liquid was removed. 30 uls of Luminata Forte (Millipore ELLUF0100) was added per well and incubated at room temperature for 10 min. The plates were then read on a Topcount, protocol LumiMatti (CPS, luminescence). The data was analyzed for % of maximum, maximum VX809 signal, and EC50 using Pearl and SPEED tools.

T1 sequence (P13569 with tags, fused parts or gaps DEL508-508): as above

Consider `CC(C)(C)[C@H](NC(=O)c1ccc2sccc2c1OCc1ccc(SC(F)(F)F)cc1)C(=O)O` [Compound 32-11, (2S)-3,3-dimethyl-2-(4-((4-((trifluoromethyl)thio)benzyl)oxy)-benzo[b]thiophene-5-carboxamido)butanoic acid], for which the “TECC24 AUC fold over DMSO” value in assay [1] was “B (“B” refers to AUC @10 μM between 4-6)”. In assay [2], the negative-log EC50 (pEC50) was 5.98 and the maximum response (Emax) came to 81.3%.
As to `CC(C)(C)[C@H](NC(=O)c1ccc2sccc2c1OCc1nc2ccccc2s1)C(=O)O` [Compound 32-13, (2S)-2-(4-(benzo[d]thiazol-2-ylmethoxy)-benzo[b]thiophene-5-carboxamido)-3,3-dimethylbutanoic acid], the “TECC24 AUC fold over DMSO” value in assay [1] is reported as “C (“C” refers to AUC @10 μM < 4)”. In assay [2], this compound gave a pEC50 of 5.39 and an Emax of 143%.
The like results for `CC(C)(C)[C@H](NC(=O)c1ccc2sccc2c1OCC1CCCCC1)C(=O)O` [Compound 32-14, (2S)-2-(4-(cyclohexylmethoxy)-benzo[b]thiophene-5-carboxamido)-3,3-dimethylbutanoic acid] were, in that order, “C (“C” refers to AUC @10 μM < 4)”, 5.56 and 210%.
Take `CCC(C)(C)[C@H](NC(=O)c1ccc2sc(C)c(Cl)c2c1OCc1ccc(C(F)(F)F)cc1)C(=O)O` [Compound 33-1, (2S)-2-[[3-chloro-2-methyl-4-[[4-(trifluoromethyl)phenyl]methoxy]benzothiophene-5-carbonyl]amino]-3,3-dimethyl-pentanoic acid]: in assay [1], the “TECC24 AUC fold over DMSO” value is given as “A (“A” refers to AUC @10 μM > 6)”. In assay [2], the negative logarithm of the EC50 (pEC50) is 6.19 and the maximal effect (Emax) came out at 308%.
The like results for `CC(C)CCc1cc2c(OCc3ccc(C(F)(F)F)cc3)c(C(=O)N[C@H](C(=O)O)C(C)(C)C)ccc2s1` [Compound 33-2, (2S)-2-[[2-isopentyl-4-[[4-(trifluoromethyl)phenyl]methoxy]benzothiophene-5-carbonyl]amino]-3,3-dimethyl-butanoic acid] were, in that order, “B (“B” refers to AUC @10 μM between 4-6)”, 6.36 and 216%.
Regarding `CC(C)(C)[C@H](NC(=O)c1ccc2sc(C(F)F)cc2c1OCc1ccc(C(F)(F)F)cc1)C(=O)O` [Compound 33-3, (2S)-2-(2-(difluoromethyl)-4-((4-(trifluoromethyl)benzyl)oxy)-benzo[b]thiophene-5-carboxamido)-3,3-dimethylbutanoic acid], the “TECC24 AUC fold over DMSO” value in assay [1] was “A (“A” refers to AUC @10 μM > 6)”. In assay [2], the pEC50 is 6.05 and the maximal effect (Emax) was 350%.
The like results for `CC(C)c1cc2c(OCc3ccc(OC(F)(F)F)cc3)c(C(=O)N[C@H](C(=O)O)C(C)(C)C)ccc2s1` [Compound 33-4, (2S)-2-(2-isopropyl-4-((4-(trifluoromethoxy)benzyl)oxy)-benzo[b]thiophene-5-carboxamido)-3,3-dimethylbutanoic acid] were, in that order, “A (“A” refers to AUC @10 μM > 6)”, 5.63 and 232%.
The like results for `CC(C)(C)[C@H](NC(=O)c1ccc2sc(Cl)cc2c1OCc1ccc(C(F)(F)F)cc1)C(=O)O` [Compound 33-5, (2S)-2-(2-chloro-4-((4-(trifluoromethyl)benzyl)oxy)-benzo[b]thiophene-5-carboxamido)-3,3-dimethylbutanoic acid] were, in that order, “A (“A” refers to AUC @10 μM > 6)”, 6.58 and 251%.
For `CCC(C)(C)[C@H](NC(=O)c1ccc2sc(Cl)cc2c1OCc1ccc(C(F)(F)F)cc1)C(=O)O` [Compound 33-6, (2S)-2-(2-chloro-4-((4-(trifluoromethyl)benzyl)oxy)-benzo[b]thiophene-5-carboxamido)-3,3-dimethylpentanoic acid] the same measures were “A (“A” refers to AUC @10 μM > 6)”, 6.30 and 279%.
Regarding `COc1cc2c(OCc3ccc(C(F)(F)F)cc3)c(C(=O)N[C@H](C(=O)O)C(C)(C)C)ccc2s1` [Compound 33-7, (2S)-2-(2-methoxy-4-((4-(trifluoromethyl)benzyl)oxy)-benzo[b]thiophene-5-carboxamido)-3,3-dimethylbutanoic acid], in assay [1], the “TECC24 AUC fold over DMSO” value is recorded as “A (“A” refers to AUC @10 μM > 6)”. In assay [2], this compound had a pEC50 of 6.19 and an Emax of 312%.
The like results for `Cc1cc2ccc(C(=O)N[C@H](C(=O)O)C(C)(C)C)c(OCc3ccc(OC(F)(F)F)cc3)c2s1` [Compound 33-8, (2S)-3,3-dimethyl-2-(2-methyl-7-((4-(trifluoromethoxy)benzyl)oxy)-benzo[b]thiophene-6-carboxamido)butanoic acid] were, in that order, “A (“A” refers to AUC @10 μM > 6)”, 6.18 and 155%.
With `CCC(C)(C)[C@H](NC(=O)c1ccc2sc(C)c(Cl)c2c1OCc1ccc(OC(F)(F)F)cc1)C(=O)O` [Compound 33-9, (2S)-2-(3-chloro-2-methyl-4-((4-(trifluoromethoxy)benzyl)oxy)-benzo[b]thiophene-5-carboxamido)-3,3-dimethylpentanoic acid], the “TECC24 AUC fold over DMSO” value in assay [1] is given as “A (“A” refers to AUC @10 μM > 6)”. In addition, in assay [2], the pEC50 was 5.95 and the Emax was determined as 250%.
For `CCc1cc2ccc(C(=O)N[C@H](C(=O)O)C(C)(C)CC)c(OCc3ccc(OC(F)(F)F)cc3)c2s1` [Compound 33-10, (2S)-2-(2-ethyl-7-((4-(trifluoromethoxy)benzyl)oxy)-benzo[b]thiophene-6-carboxamido)-3,3-dimethylpentanoic acid] the same measures were “B (“B” refers to AUC @10 μM between 4-6)”, 5.90 and 216%.
